Reference: patent US9114149B2, “[CU(thp)4]n[X]-n compounds for the treatment of a broad range of human solid tumors, including refractory tumors” (Universita Degli Studi Di Padova, priority 2011, dated 2015)

Assay: Tissue distribution (Cu content) in LLC bearing mice
Format: in vivo, C57BL mice
Conditions: 50 mg/kg i.p., 24 hrs; Cu by atomic absorption, treated versus control (FIG. 4)
Description: Mice were inoculated […]. on the right flank with 2×10^6 LLC cells. After 10 days, CP was administered i.p. at a dose of 50 mg/kg. The mice were sacrificed after 24 hours and tumor (indicated with 1), brain (indicated with 2), spleen (indicated with 3), kidney (indicated with 4), intestine (indicated with 5), liver (indicated with 6) and stomach (indicated with 7) were excised. Tissues were washed in ice-cold saline and weighed after removing excess fluid. All samples were mineralized in HNO3 and Cu content in each sample was measured by atomic absorption spectrophotometry. The Y axis indicates the ratio of copper amount in treated versus control mice.
To assess the potential selectivity to the solid tumor mass, tissue distribution of CP was investigated in LLC bearing C57BL mice. Biodistribution studies are very helpful in assessing the ability of a molecule to traverse multilayers of cells. Chemotherapy of solid tumors often fails because adequate cytotoxic concentrations are not achieved due to poor penetration and non-uniform distribution of the drug.
To assess the potential selectivity to the solid tumor mass, tissue distribution of [Cu(thp)4][PF6] (CP) was investigated in LLC bearing C57BL mice. On day 10 after tumor implantation, mice were treated with a single i.p. injection of 50 mg/kg of CP.

Compound: F[P-](F)(F)(F)(F)F.OC[P+](CO)(CO)[Cu-3]([P+](CO)(CO)CO)([P+](CO)(CO)CO)[P+](CO)(CO)CO [CP, [Cu(thp)4][PF6]]
- CP concentration in solid tumor mass: highest CP concentration
- copper drug in brain: No copper drug was detected
- copper drug in intestinal tract: very little
